Laboratory results taken from the supplement of paper PMC11061612.

Key:
Assay in all cases: combination Emax (second highest fraction inhibited in the dose matrix, 72 h); higher = more inhibition; extreme values may be limits of the assay
[1] = system: PC-3 (Prostate Carcinoma)
In short: (§1)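 Bliss excess equals the observed combination effect minus the expected value EA + EB − EA·EB, where EA and EB are the effects of each agent alone. Combination Emax is the second-highest inhibition within the matrix. Inhibition was scaled from CellTiter-Glo 2.0 luminescence, with 0 set by vehicle wells and 1 by blank wells, after 72 hours of two-drug dosing of cells plated in 1536-well plates.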

[2] = system: DAN-G (Pancreatic Carcinoma)
In short: as §1

[3] = system: COR-L279 (Small Cell Lung Carcinoma)
In short: as §1

[4] = system: NCI-H661 (Non-Small Cell Lung Carcinoma)
In short: as §1

[5] = system: MOLM-13 (Acute Myeloid Leukemia)
In short: as §1

[6] = system: H9 (T-Cell Non-Hodgkin's Lymphoma)
In short: as §1

[7] = system: SUP-B15 (B-Lymphoblastic Leukemia)
In short: as §1

[8] = system: IM-95 (Gastric Carcinoma)
In short: as §1

[9] = system: HCC1187 (Breast Carcinoma)
In short: as §1

[10] = system: NCI-H526 (Small Cell Lung Carcinoma)
In short: as §1

[11] = system: ESO51 (Esophageal Adenocarcinoma)
In short: as §1

[12] = system: RPMI-8226 (Plasma Cell Myeloma)
In short: as §1

[13] = system: NCI-H2731 (Mesothelioma)
In short: as §1

[14] = system: VMRC-RCZ (Kidney Carcinoma)
In short: as §1

[15] = system: SK-GT-2 (Gastric Carcinoma)
In short: as §1

[16] = system: KY821 (Acute Myeloid Leukemia)
In short: as §1

[17] = system: MN-60 (B-Lymphoblastic Leukemia)
In short: as §1

[18] = system: DMS-114 (Small Cell Lung Carcinoma)
In short: as §1

[19] = system: SNU-398 (Hepatocellular Carcinoma)
In short: as §1

[20] = system: KP-3 (Pancreatic Carcinoma)
In short: as §1

SMILES | combination Emax [1] | combination Emax [2] | combination Emax [3] | combination Emax [4] | combination Emax [5] | combination Emax [6] | combination Emax [7] | combination Emax [8] | combination Emax [9] | combination Emax [10] | combination Emax [11] | combination Emax [12] | combination Emax [13] | combination Emax [14] | combination Emax [15] | combination Emax [16] | combination Emax [17] | combination Emax [18] | combination Emax [19] | combination Emax [20]
NC1(C(=O)N[C@@H](CCO)c2ccc(Cl)cc2)CCN(c2ncnc3[nH]ccc23)CC1 [Capivasertib] + CC(C)n1c(=O)n(C)c2cnc3cc(F)c(-c4ccc(OCCCN5CCCCC5)nc4)cc3c21 [AZD1390] (first compound max 10 µM, 7x7, partner max 0.3 µM) | 0.322 | 0.292 | 0.602 | 0.245 | 0.739 | 0.78 | 0.398 | 0.333 | 0.296 | 0.282 | 0.246 | 0.135 | 0.265 | 0.372 | 0.338 | 0.547 | 0.44 | 0.442 | 0.25 | 0.203
NC1(C(=O)N[C@@H](CCO)c2ccc(Cl)cc2)CCN(c2ncnc3[nH]ccc23)CC1 [Capivasertib] + CCN(CCO)CCCOc1ccc2c(Nc3cc(CC(=O)Nc4cccc(F)c4)[nH]n3)ncnc2c1 [AZD2811] (first compound max 10 µM, 7x7, partner max 1 µM) | 0.401 | 0.43 | 0.935 | 0.36 | 0.993 | 1 | 0.929 | 0.427 | 0.833 | 0.588 | 0.248 | 0.422 | 0.398 | 0.461 | 0.417 | 0.613 | 0.336 | 0.456 | 0.542 | 0.284
NC1(C(=O)N[C@@H](CCO)c2ccc(Cl)cc2)CCN(c2ncnc3[nH]ccc23)CC1 [Capivasertib] + COc1nnc2ccc(N3CCC(c4ccc(OCCN5CCN(C)C(=O)[C@H]5C)cc4)CC3)nn12 [AZD5153] (first compound max 10 µM, 7x7, partner max 1 µM) | 0.45 | 0.466 | 1 | 0.454 | 1 | 1 | 1 | 0.562 | 0.309 | 0.983 | 0.622 | 0.878 | 0.588 | 0.487 | 0.362 | 1 | 0.848 | 0.529 | 0.565 | 0.296
NC1(C(=O)N[C@@H](CCO)c2ccc(Cl)cc2)CCN(c2ncnc3[nH]ccc23)CC1 [Capivasertib] + C[C@@H]1COCCN1C2=NC(=NC(=C2)C3(CC3)[S@](=N)(=O)C)C4=C5C=CNC5=NC=C4 [AZD6738] (first compound max 10 µM, 7x7, partner max 10 µM) | 0.593 | 0.721 | 0.853 | 0.569 | 0.982 | 1 | 0.986 | 0.456 | 0.51 | 0.779 | 0.817 | 0.875 | 0.514 | 0.549 | 0.601 | 1 | 0.715 | 0.623 | 0.752 | 0.318
NC1(C(=O)N[C@@H](CCO)c2ccc(Cl)cc2)CCN(c2ncnc3[nH]ccc23)CC1 [Capivasertib] + Cn1cnc2c(F)c(Nc3ccc(Br)cc3Cl)c(C(=O)NOCCO)cc21 [Selumetinib] (first compound max 10 µM, 7x7, partner max 10 µM) | 0.258 | 0.65 | 0.551 | 0.427 | 0.986 | 1 | 0.805 | 0.502 | 0.296 | 0.249 | 0.624 | 0.43 | 0.306 | 0.388 | 0.497 | 0.891 | 0.188 | 0.456 | 0.472 | 0.417
Cc1nc(Nc2ncc(C(=O)Nc3c(C)cccc3Cl)s2)cc(N2CCN(CCO)CC2)n1 [Dasatinib] + CC(=O)Nc1cccc(-n2c(=O)n(C3CC3)c(=O)c3c(Nc4ccc(I)cc4F)n(C)c(=O)c(C)c32)c1 [Trametinib] (first compound max 2 µM, 7x7, partner max 1 µM) | 0.243 | 0.962 | 0.254 | 0.502 | 0.955 | 0.892 | 0.952 | 0.288 | 0.137 | 0.0355 | 0.949 | 0.239 | 0.361 | 0.454 | 0.545 | 0.691 | 0.27 | 0.326 | 0.501 | 0.61
COc1cccc2c1C(=O)c1c(O)c3c(c(O)c1C2=O)C[C@@](O)(C(=O)CO)C[C@@H]3O[C@H]1C[C@H](N)[C@H](O)[C@H](C)O1 [Doxorubicin] + Cc1cc2ncnn2cc1Nc1ncc2c(n1)n(C1CCOCC1)c(=O)n2C [AZD7648] (first compound max 1 µM, 7x7, partner max 10 µM) | 0.431 | 0.735 | 1 | 0.753 | 1 | 1 | 0.987 | 0.7 | 0.724 | 0.988 | 0.611 | 0.976 | 0.715 | 0.317 | 0.406 | 0.983 | 0.833 | 0.551 | 0.595 | 0.152
